Measured values taken from ChEMBL document CHEMBL1150318, “Discovery of a novel, orally active himbacine-based thrombin receptor antagonist (SCH 530348) with potent antiplatelet activity” (J Med Chem, 2008).
Calls of active or inactive are those of the source. The calls are words filed in the database; no cut-off is given here.

tested on: Platelet; assay: Ex vivo inhibition of haTRAP-induced platelet aggregation in cynomolgus monkey at 0.1 mg/kg, po after 24 hrs by impedance aggregometry; assay type: functional; conditions: Macaca fascicularis

Row | SMILES | inhibition in vivo at 0.1 mg/kg
1 | CCOC(=O)N[C@@H]1CC[C@@H]2[C@@H](C1)C[C@H]1C(=O)O[C@H](C)[C@H]1[C@H]2/C=C/c1ccc(-c2cccc(C#N)c2)cn1 | 80%
2 | CCOC(=O)N[C@@H]1CC[C@@H]2[C@@H](C1)C[C@H]1C(=O)O[C@H](C)[C@H]1[C@H]2/C=C/c1ccc(-c2ccccc2F)cn1 | 80%

tested on: not listed separately; assay: AUC (0 to 24 hrs) in cynomolgus monkey at 0.1 mg/kg, po after 24 hrs; assay type: ADME, organism-based, Macaca fascicularis; parameters: time < 24 hr, dose 0.1 mg/kg, route oral; conditions: plasma

Row | AUC(0-t) at 24 h | SMILES
3 | 2.08 µM·h | CCOC(=O)N[C@@H]1CC[C@@H]2[C@@H](C1)C[C@H]1C(=O)O[C@H](C)[C@H]1[C@H]2/C=C/c1ccc(-c2cccc(C#N)c2)cn1
4 | 0.2 µM·h | CCOC(=O)N[C@@H]1CC[C@@H]2[C@@H](C1)C[C@H]1C(=O)O[C@H](C)[C@H]1[C@H]2/C=C/c1ccc(-c2ccccc2F)cn1

target: T1, Proteinase-activated receptor 1 (Homo sapiens, UniProt P25116); assay: Displacement of [3H]haTRAP from PAR1 in human platelets; conditions: not given
T1 sequence (P25116 whole entry): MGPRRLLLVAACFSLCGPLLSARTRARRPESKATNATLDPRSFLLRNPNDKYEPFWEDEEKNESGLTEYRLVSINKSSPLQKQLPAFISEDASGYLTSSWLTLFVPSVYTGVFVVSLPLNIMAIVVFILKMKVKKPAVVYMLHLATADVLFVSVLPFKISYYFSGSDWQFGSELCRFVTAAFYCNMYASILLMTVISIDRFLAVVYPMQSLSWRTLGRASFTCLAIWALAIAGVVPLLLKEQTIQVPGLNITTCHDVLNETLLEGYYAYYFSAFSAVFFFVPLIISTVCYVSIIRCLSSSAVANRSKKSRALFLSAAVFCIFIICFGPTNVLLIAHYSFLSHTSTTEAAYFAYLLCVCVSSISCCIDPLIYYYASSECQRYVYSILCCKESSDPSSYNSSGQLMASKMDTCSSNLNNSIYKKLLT

Row | Ki | SMILES
5 | 10 nM | C[C@H]1OC(=O)[C@@H]2C[C@@H]3C[C@H](NS(C)(=O)=O)CC[C@H]3[C@H](/C=C/c3ccc(-c4cccc(C(F)(F)F)c4)cn3)[C@H]12
6 | 20 nM | C[C@H]1OC(=O)[C@@H]2C[C@@H]3C[C@H](N)CC[C@H]3[C@H](/C=C/c3ccc(-c4cccc(F)c4)cn3)[C@H]12
7 | 6.1 nM | COC(=O)N[C@@H]1CC[C@@H]2[C@@H](C1)C[C@H]1C(=O)O[C@H](C)[C@H]1[C@H]2/C=C/c1ccc(-c2cccc(F)c2)cn1
8 | 11 nM | C[C@H]1OC(=O)[C@@H]2C[C@@H]3C[C@H](NS(C)(=O)=O)CC[C@H]3[C@H](/C=C/c3ccc(-c4cccc(F)c4)cn3)[C@H]12
9 | 6.2 nM | CC(=O)N[C@@H]1CC[C@@H]2[C@@H](C1)C[C@H]1C(=O)O[C@H](C)[C@H]1[C@H]2/C=C/c1ccc(-c2cccc(F)c2)cn1
10 | 4.4 nM | CNC(=O)N[C@@H]1CC[C@@H]2[C@@H](C1)C[C@H]1C(=O)O[C@H](C)[C@H]1[C@H]2/C=C/c1ccc(-c2cccc(F)c2)cn1
11 | 6.4 nM | CCC(=O)N[C@@H]1CC[C@@H]2[C@@H](C1)C[C@H]1C(=O)O[C@H](C)[C@H]1[C@H]2/C=C/c1ccc(-c2cccc(F)c2)cn1

Continued, compound first:

Row | SMILES | Ki
12 | C[C@H]1OC(=O)[C@@H]2C[C@@H]3C[C@H](NC(=O)C4CC4)CC[C@H]3[C@H](/C=C/c3ccc(-c4cccc(F)c4)cn3)[C@H]12 | 6.5 nM
13 | CCOC(=O)N[C@@H]1CC[C@@H]2[C@@H](C1)C[C@H]1C(=O)O[C@H](C)[C@H]1[C@H]2/C=C/c1ccc(-c2cccc(C(N)=O)c2)cn1 | 367 nM
14 | CCOC(=O)N(C)[C@@H]1CC[C@@H]2[C@@H](C1)C[C@H]1C(=O)O[C@H](C)[C@H]1[C@H]2/C=C/c1ccc(-c2cccc(F)c2)cn1 | 4.1 nM
15 | CCOC(=O)N[C@@H]1CC[C@@H]2[C@@H](C1)C[C@H]1C(=O)O[C@H](C)[C@H]1[C@H]2/C=C/c1ccc(-c2cc(F)cc(F)c2)cn1 | 5.9 nM
16 | CCCOC(=O)N[C@@H]1CC[C@@H]2[C@@H](C1)C[C@H]1C(=O)O[C@H](C)[C@H]1[C@H]2/C=C/c1ccc(-c2cccc(F)c2)cn1 | 17 nM
17 | CCOC(=O)N[C@@H]1CC[C@@H]2[C@@H](C1)C[C@H]1C(=O)O[C@H](C)[C@H]1[C@H]2/C=C/c1ccc(-c2cccc(C#N)c2)cn1 | 1.8 nM
18 | CC(=O)N[C@@H]1CC[C@@H]2[C@@H](C1)C[C@H]1C(=O)O[C@H](C)[C@H]1[C@H]2/C=C/c1ccc(-c2cccc(C(F)(F)F)c2)cn1 | 30 nM
19 | CCOC(=O)N[C@@H]1CC[C@@H]2[C@@H](C1)C[C@H]1C(=O)O[C@H](C)[C@H]1[C@H]2/C=C/c1ccc(-c2cccc(Cl)c2)cn1 | 11 nM
20 | CCNC(=O)N[C@@H]1CC[C@@H]2[C@@H](C1)C[C@H]1C(=O)O[C@H](C)[C@H]1[C@H]2/C=C/c1ccc(-c2cccc(F)c2)cn1 | 4.8 nM
21 | C[C@H]1OC(=O)[C@@H]2C[C@@H]3C[C@H](NC(=O)OC(C)(C)C)CC[C@H]3[C@H](/C=C/c3ccc(-c4cccc(C#N)c4)cn3)[C@H]12 | 44 nM
22 | CCOC(=O)N[C@@H]1CC[C@@H]2[C@@H](C1)C[C@H]1C(=O)O[C@H](C)[C@H]1[C@H]2/C=C/c1ccc(-c2cccc(C)c2F)cn1 | 11 nM
23 | CCOC(=O)N[C@@H]1CC[C@@H]2[C@@H](C1)C[C@H]1C(=O)O[C@H](C)[C@H]1[C@H]2/C=C/c1ccc(-c2ccccc2F)cn1 | 11 nM
24 | CCOC(=O)N[C@@H]1CC[C@@H]2[C@@H](C1)C[C@H]1C(=O)O[C@H](C)[C@H]1[C@H]2/C=C/c1ccc(-c2cccc(OC)c2)cn1 | 5.9 nM
25 | CCOC(=O)N(C)[C@@H]1CC[C@@H]2[C@@H](C1)C[C@H]1C(=O)O[C@H](C)[C@H]1[C@H]2/C=C/c1ccc(-c2cccc(C(F)(F)F)c2)cn1 | 3.7 nM
26 | CCCN(C(=O)OCC)[C@@H]1CC[C@@H]2[C@@H](C1)C[C@H]1C(=O)O[C@H](C)[C@H]1[C@H]2/C=C/c1ccc(-c2cccc(F)c2)cn1 | 89 nM

tested on: Platelet; assay: Ex vivo inhibition of haTRAP-induced platelet aggregation in cynomolgus monkey at 1 mg/kg, po after 24 hrs by impedance aggregometry; assay type: functional; conditions: Macaca fascicularis

Row | SMILES | inhibition in vivo at 1 mg/kg
27 | C[C@H]1OC(=O)[C@@H]2C[C@@H]3C[C@H](NC(=O)C4CC4)CC[C@H]3[C@H](/C=C/c3ccc(-c4cccc(F)c4)cn3)[C@H]12 | 100%
28 | CCOC(=O)N[C@@H]1CC[C@@H]2[C@@H](C1)C[C@H]1C(=O)O[C@H](C)[C@H]1[C@H]2/C=C/c1ccc(-c2cccc(C)c2F)cn1 | 100%
29 | CNC(=O)N[C@@H]1CC[C@@H]2[C@@H](C1)C[C@H]1C(=O)O[C@H](C)[C@H]1[C@H]2/C=C/c1ccc(-c2cccc(F)c2)cn1 | 55%
30 | CCC(=O)N[C@@H]1CC[C@@H]2[C@@H](C1)C[C@H]1C(=O)O[C@H](C)[C@H]1[C@H]2/C=C/c1ccc(-c2cccc(F)c2)cn1 | 100%

tested on: not listed separately; assay: Cmax in cynomolgus monkey at 0.1 mg/kg, po after 24 hrs; assay type: ADME, organism-based, Macaca fascicularis; parameters: dose 0.1 mg/kg, route oral; conditions: in vivo

Row | Cmax | SMILES
31 | 200 nM | CCOC(=O)N[C@@H]1CC[C@@H]2[C@@H](C1)C[C@H]1C(=O)O[C@H](C)[C@H]1[C@H]2/C=C/c1ccc(-c2cccc(C#N)c2)cn1
32 | 24 nM | CCOC(=O)N[C@@H]1CC[C@@H]2[C@@H](C1)C[C@H]1C(=O)O[C@H](C)[C@H]1[C@H]2/C=C/c1ccc(-c2ccccc2F)cn1

tested on: not listed separately; assay: Cmax in cynomolgus monkey at 1 mg/kg, po after 24 hrs; assay type: ADME, organism-based, Macaca fascicularis; parameters: dose 1 mg/kg, route oral; conditions: in vivo

Row | Cmax | SMILES
33 | 260 nM | CNC(=O)N[C@@H]1CC[C@@H]2[C@@H](C1)C[C@H]1C(=O)O[C@H](C)[C@H]1[C@H]2/C=C/c1ccc(-c2cccc(F)c2)cn1
34 | 750 nM | CCC(=O)N[C@@H]1CC[C@@H]2[C@@H](C1)C[C@H]1C(=O)O[C@H](C)[C@H]1[C@H]2/C=C/c1ccc(-c2cccc(F)c2)cn1

The next lines start with the compound.

Row | SMILES | Cmax
35 | C[C@H]1OC(=O)[C@@H]2C[C@@H]3C[C@H](NC(=O)C4CC4)CC[C@H]3[C@H](/C=C/c3ccc(-c4cccc(F)c4)cn3)[C@H]12 | 390 nM
36 | CCOC(=O)N[C@@H]1CC[C@@H]2[C@@H](C1)C[C@H]1C(=O)O[C@H](C)[C@H]1[C@H]2/C=C/c1ccc(-c2cccc(C)c2F)cn1 | 20 nM

tested on: Platelet; assay: Ex vivo inhibition of haTRAP-induced platelet aggregation in cynomolgus monkey at 1 mg/kg, po after 6 hrs by impedance aggregometry; assay type: functional; conditions: Macaca fascicularis

Row | SMILES | inhibition in vivo at 1 mg/kg
37 | C[C@H]1OC(=O)[C@@H]2C[C@@H]3C[C@H](N)CC[C@H]3[C@H](/C=C/c3ccc(-c4cccc(F)c4)cn3)[C@H]12 | < 40%
38 | C[C@H]1OC(=O)[C@@H]2C[C@@H]3C[C@H](NS(C)(=O)=O)CC[C@H]3[C@H](/C=C/c3ccc(-c4cccc(F)c4)cn3)[C@H]12 | < 40%

tested on: Platelet; assay: Ex vivo inhibition of haTRAP-induced platelet aggregation in cynomolgus monkey at 0.5 mg/kg, po by impedance aggregometry; assay type: functional, organism-based; parameters: dose 0.5 mg/kg; conditions: Macaca fascicularis

Row | SMILES | Activity
39 | CCOC(=O)N(C)[C@@H]1CC[C@@H]2[C@@H](C1)C[C@H]1C(=O)O[C@H](C)[C@H]1[C@H]2/C=C/c1ccc(-c2cccc(F)c2)cn1 | inactive

tested on: not listed separately; assay: AUC (0 to 24 hrs) in cynomolgus monkey at 1 mg/kg, po after 24 hrs; assay type: ADME, organism-based, Macaca fascicularis; parameters: time < 24 hr, dose 1 mg/kg, route oral; conditions: plasma

Row | AUC(0-t) at 24 h | SMILES
40 | 2.63 µM·h | CNC(=O)N[C@@H]1CC[C@@H]2[C@@H](C1)C[C@H]1C(=O)O[C@H](C)[C@H]1[C@H]2/C=C/c1ccc(-c2cccc(F)c2)cn1
41 | 11.4 µM·h | CCC(=O)N[C@@H]1CC[C@@H]2[C@@H](C1)C[C@H]1C(=O)O[C@H](C)[C@H]1[C@H]2/C=C/c1ccc(-c2cccc(F)c2)cn1

Further lines, the compound ahead of its results:

Row | SMILES | AUC(0-t) at 24 h
42 | C[C@H]1OC(=O)[C@@H]2C[C@@H]3C[C@H](NC(=O)C4CC4)CC[C@H]3[C@H](/C=C/c3ccc(-c4cccc(F)c4)cn3)[C@H]12 | 5.53 µM·h
43 | CCOC(=O)N[C@@H]1CC[C@@H]2[C@@H](C1)C[C@H]1C(=O)O[C@H](C)[C@H]1[C@H]2/C=C/c1ccc(-c2cccc(C)c2F)cn1 | 0.13 µM·h
